Among the data in patent US20240262815A1, “HETEROARYL DERIVATIVE, METHOD FOR PREPARING SAME, AND PHARMACEUTICAL COMPOSITION COMPRISING SAME AS ACTIVE INGREDIENT” (VORONOI INC., priority 2021, published 2024) are GI50 values, retold here.

The subject of the assay is SK-BR-3 cancer cells. As to the kind of experiment: Inhibitory activity against proliferation of SK-BR-3 cancer cells (CellTiter-Glo). Format: cell-based. Conditions: Homo sapiens, SK-BR-3, 120 h, ErbB2-overexpressing SK-BR-3 cells, 120 hours after treatment. In short, it runs like this: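 GI50 derived from % growth relative to control, measured by CellTiter-Glo luminescence after 120 h compound exposure (12 concentrations, 0.2 nM-5 μM final, n=3). BT-474 grown in RPMI-1640/20% FBS, SK-BR-3 in McCOY'S 5A/10% FBS; seeding 48 h pre-treatment.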
As usually defined, the GI50 is the concentration that inhibits growth by half. Take `C=CC(=O)Nc1cc(Nc2cc(N3OCC[C@@H]3c3cccc(-c4cc(F)cc(F)c4)c3)ncn2)c(OC)cc1N1CCC(N2CCOCC2)CC1` [Example 272, (R)-N-(5-((6-(3-(3′,5′-difluoro-[1,1′-biphenyl]-3-yl)-isoxazolidin-2-yl)-pyrimidin-4-yl)-amino)-4-methoxy-2-(4-morpholino-piperidin-1-yl)-phenyl)acrylamide]: the concentration for 50% growth inhibition (GI50) was under 50 nM.

Turning to `C=CC(=O)Nc1cc(Nc2cc(N3OCC[C@@H]3c3cccc(-c4cc(F)cc(F)c4)c3)ncn2)c(OC)cc1N(C)CCN(C)C` [Example 277, (R)-N-(5-((6-(3-(3′,5′-difluoro-[1,1′-biphenyl]-3-yl)-isoxazolidin-2-yl)-pyrimidin-4-yl)-amino)-2-((2-(dimethylamino)-ethyl)(methyl)-amino)-4-methoxy-phenyl)acrylamide], the GI50 is under 50 nM.

With `C=CC(=O)Nc1cc(Nc2cc(N3OCC[C@@H]3c3cccc(-c4cccc(F)c4)c3)ncn2)c(OC)cc1N1CCNC2(CC2)C1` [Example 291, (R)-N-(5-((6-(3-(3′-fluoro-[1,1′-biphenyl]-3-yl)-isoxazolidin-2-yl)-pyrimidin-4-yl)-amino)-4-methoxy-2-(4,7-diazaspiro-[2.5]octan-7-yl)-phenyl)acrylamide], the GI50 was under 50 nM.

As for `C=CC(=O)Nc1cc(Nc2cc(N3OCC[C@@H]3c3cccc(C#Cc4ccccc4)c3)ncn2)c(OC)cc1N1CCN(C)CC1` [Example 296, (R)-N-(4-methoxy-2-(4-methylpiper-azin-1-yl)-5-((6-(3-(3-(phenyleth-ynyl)phenyl)isox-azolidin-2-yl)pyr-imidin-4-yl)amino)-phenyl)acrylamide], the GI50 was 50 to 500 nM.

For `C=CC(=O)Nc1cc(Nc2cc(N3OCC[C@@H]3c3cccc(-c4ccc(O)nc4)c3)ncn2)c(OC)cc1N1CCN(C)CC1` [Example 299, (R)-N-(5-((6-(3-(3-(6-hydroxypyridin-3-yl)phenyl)isox-azolidin-2-yl)pyr-imidin-4-yl)amino)-4-methoxy-2-(4-methylpiperazin-1-yl)phenyl)acryl-amide], the GI50 was in the range of 500 to 5000 nM.

On to `C=CC(=O)Nc1cc(Nc2cc(N3OCC[C@@H]3c3cccc(C#CC(C)(C)C)c3)ncn2)c(OC)cc1N1CCN(C)CC1` [Example 311, (R)-N-(5-((6-(3-(3-(3,3-dimethyl-but-1-yn-1-yl)phen-yl)isoxazolidin-2-yl)pyrimidin-4-yl)-amino)-4-methoxy-2-(4-methylpiper-azin-1-yl)phenyl)-acrylamide], for which the GI50 lay within 50 to 500 nM.

On to `C=CC(=O)Nc1cc(Nc2cc(N3OCC[C@@H]3c3cccc(C#Cc4cccc(O)c4)c3)ncn2)c(OC)cc1N(C)CCN(C)C` [Example 312, (R)-N-(2-((2-(dimethylamino)-ethyl)(methyl)-amino)-5-((6-(3-(3-((3-hydroxy-phenyl)ethynyl)-phenyl)isoxazol-idin-2-yl)pyrim-idin-4-yl)amino)-4-methoxyphen-yl)acrylamide], for which the GI50 lay within 50 to 500 nM.

Take `C=CC(=O)Nc1cc(Nc2cc(N3OCC[C@@H]3c3cccc(C#Cc4cccc(F)c4)c3)ncn2)c(OC)cc1N(C)CCN(C)C` [Example 313, (R)-N-(2-((2-(dimethylamino)-ethyl)(methyl)-amino)-5-((6-(3-(3-((3-fluorophen-yl)ethynyl)phenyl)-isoxazolidin-2-yl)pyrimidin-4-yl)-amino)-4-methoxy-phenyl)acrylamide]: the GI50 was under 50 nM.

Take `C=CC(=O)Nc1cc(Nc2cc(N3OCC[C@@H]3c3cccc(-c4cccc(F)c4)c3)ncn2)c(OC)cc1N1CC2CCC(C1)N2C1CC1` [Example 316, N-(2-((1R,5S)-8-cyclopropyl-3,8-diazabicyclo-[3.2.1]octan-3-yl)-5-((6-((R)-3-(3′-fluoro-[1,1′-biphen-yl]-3-yl)isoxazol-idin-2-yl)pyrim-idin-4-yl)amino)-4-methoxyphenyl)-acrylamide]: the GI50 was 50 to 500 nM.

As for `C=CC(=O)Nc1cc(Nc2cc(N3OCC[C@@H]3c3cccc(-c4cccc(F)c4)c3)ncn2)c(OC)cc1N1CC2CN(C)CC2C1` (stereo partly drawn) [Example 319, N-(5-((6-((R)-3-(3′-fluoro-[1,1′-biphenyl]-3-yl)-isoxazolidin-2-yl)-pyrimidin-4-yl)-amino)-4-methoxy-2-(5-methylhexa-hydropyrrolo[3,4-c]pyrrol-2(1H)-yl)-phenyl)acrylamide], the GI50 was under 50 nM.

As to `C=CC(=O)Nc1cc(Nc2cc(N3OCC[C@@H]3c3cccc(-c4cccc(F)c4)c3)ncn2)c(OC)cc1N1CC2(CNC2)C1` [Example 321, (R)-N-(5-((6-(3-(3′-fluoro-[1,1′-biphenyl]-3-yl)-isoxazolidin-2-yl)-pyrimidin-4-yl)-amino)-4-meth-oxy-2-(2,6-diaza-spiro[3.3]heptan-2-yl)phenyl)acryl-amide], the GI50 lay within 50 to 500 nM.

On to `C=CC(=O)Nc1cc(Nc2cc(N3OCC[C@@H]3c3cccc(OCc4cccc(F)c4)c3)ncn2)c(OC)cc1N1CCN(C)CC1` [Example compound 83, (R)-N-(5-((6-(3-(3-((3-fluorobenzyl)oxy)phenyl)isoxazolidin-2-yl)pyrimidin-4-yl)amino)-4-methoxy-2-(4-methylpiperazin-1-yl)phenyl)acrylamide], for which the GI50 lay within 50 to 500 nM.

For the compound `C=CC(=O)Nc1cc(Nc2cc(N3OCC[C@@H]3c3cccc(Oc4cccc(C(F)(F)F)c4)c3)ncn2)c(OC)cc1N1CCN(C)CC1` [Example compound 93, (R)-N-(4-methoxy-2-(4-methylpiperazin-1-yl)-5-((6-(3-(3-(3-(trifluoromethyl)phenoxy)phenyl)isoxazolidin-2-yl)pyrimidin-4-yl)amino)phenyl)acrylamide], the GI50 is under 50 nM.

`C=CC(=O)Nc1cc(Nc2cc(N3OCC[C@@H]3c3cccc(Oc4cccc(C(F)(F)F)c4)c3)ncn2)c(OC)cc1N1CCC(N2CCN(C3CC3)CC2)CC1` [Example compound 94, (R)-N-(2-(4-(4-cyclopropylpiperazin-1-yl)piperidin-1-yl)-4-methoxy-5-((6-(3-(3-(3-(trifluoromethyl)phenoxy)phenyl)isoxazolidin-2-yl)pyrimidin-4-yl)amino)phenyl)acrylamide]: the GI50 is under 50 nM.

For `C=CC(=O)Nc1cc(Nc2cc(N3OCCC3c3cccc(OCc4ccccn4)c3)ncn2)c(OC)cc1N1CC[C@@H](N(C)C)C1` (some centres unmarked) [Example compound 97], the GI50 was under 50 nM.

Regarding `C=CC(=O)Nc1cc(Nc2cc(N3OCC[C@@H]3c3cccc(OCc4cccc(C)n4)c3)ncn2)c(OC)cc1N1CCN(C)CC1` [Example compound 99, (R)-N-(4-methoxy-2-(4-methylpiperazin-1-yl)-5-((6-(3-(3-((6-methylpyridin-2-yl)methoxy)phenyl)isoxazolidin-2-yl)pyrimidin-4-yl)amino)phenyl)acrylamide], the GI50 lay in the range of 50 to 500 nM.

In the case of `C=CC(=O)Nc1cc(Nc2cc(N3OCC[C@@H]3c3cccc(OCc4cccc(C)n4)c3)ncn2)c(OC)cc1N1CCC(N2CCN(C3CC3)CC2)CC1` [Example compound 100, (R)-N-(2-(4-(4-cyclopropylpiperazin-1-yl)piperidin-1-yl)-4-methoxy-5-((6-(3-(3-((6-methylpyridin-2-yl)methoxy)phenyl)isoxazolidin-2-yl)pyrimidin-4-yl)amino)phenyl)acrylamide], the GI50 was in the range of 50 to 500 nM.

Regarding `C=CC(=O)Nc1cc(Nc2cc(N3OCC[C@@H]3c3cccc(Oc4cc(F)ccc4F)c3)ncn2)c(OC)cc1N1CCN(C)CC1` [Example compound 103, (R)-N-(5-((6-(3-(3-(2,5-difluorophenoxy)phenyl)isoxazolidin-2-yl)pyrimidin-4-yl)amino)-4-methoxy-2-(4-methylpiperazin-1-yl)phenyl)acrylamide], the GI50 lay in the range of 50 to 500 nM.

For the compound `C=CC(=O)Nc1cc(Nc2cc(N3OCCC3c3ccc(Cl)c(OCc4cccc(F)c4)c3)ncn2)c(OC)cc1N1CCN(C)CC1` (centres unmarked) [Example compound 115, N-(5-((6-(3-(4-chloro-3-((3-fluorobenzyl)oxy)phenyl)isoxazolidin-2-yl)pyrimidin-4-yl)amino)-4-methoxy-2-(4-methylpiperazin-1-yl)phenyl)acrylamide], the GI50 fell in the range of 50 to 500 nM.

Turning to `C=CC(=O)Nc1cc(Nc2cc(N3OCCC3c3cccc(-c4ccoc4)c3)ncn2)c(OC)cc1N1CCC(N2CCN(C3CC3)CC2)CC1` (centres unmarked) [Example compound 123, N-(2-(4-(4-cyclopropylpiperazin-1-yl)piperidin-1-yl)-5-((6-(3-(3-(furan-3-yl)phenyl)isoxazolidin-2-yl)pyrimidin-4-yl)amino)-4-methoxyphenyl)acrylamide], the GI50 was under 50 nM.

In the case of `C=CC(=O)Nc1cc(Nc2cc(N3OCC[C@@H]3c3cc(F)cc(-c4cnn(C)c4)c3)ncn2)c(OC)cc1N1CCC(N2CCN(C3CC3)CC2)CC1` [Example compound 129, (R)-N-(2-(4-(4-cyclopropylpiperazin-1-yl)piperidin-1-yl)-5-((6-(3-(3-fluoro-5-(1-methyl-1H-pyrazol-4-yl)phenyl)isoxazolidin-2-yl)pyrimidin-4-yl)amino)-4-methoxyphenyl)acrylamide], the GI50 is under 50 nM.

Turning to `C=CC(=O)Nc1cc(Nc2cc(N3OCC[C@@H]3c3cc(F)cc(-c4cccc(F)c4)c3)ncn2)c(OC)cc1N1CCN(C)CC1` [Example compound 130, (R)-N-(5-((6-(3-(3′,5-difluoro-[1,1′-biphenyl]-3-yl)isoxazolidin-2-yl)pyrimidin-4-yl)amino)-4-methoxy-2-(4-methylpiperazin-1-yl)phenyl)acrylamide], the GI50 was under 50 nM.

For the compound `C=CC(=O)Nc1cc(Nc2cc(N3OCC[C@@H]3c3cc(F)cc(-c4cccc(F)c4)c3)ncn2)c(OC)cc1N1CCC(N2CCN(C3CC3)CC2)CC1` [Example compound 131, (R)-N-(2-(4-(4-cyclopropylpiperazin-1-yl)piperidin-1-yl)-5-((6-(3-(3′,5-difluoro-[1,1′-biphenyl]-3-yl)isoxazolidin-2-yl)pyrimidin-4-yl)amino)-4-methoxyphenyl)acrylamide], the GI50 is under 50 nM.
